Reference: the OligoGym collection
Several values for one entry are separate records, joined by “and”; a condition that tells them apart may be missing. Equal values may be shown once. After the bases stand the sugars from the 5' end (letter, count) and the backbone: PS all phosphorothioate, else s phosphorothioate and o phosphodiester by linkage. Methylation of C is not given here. e = 2'-O-(2-methoxyethyl) (MOE); k = constrained ethyl (cEt); d = 2'-deoxy (DNA)

Target: SOD1
Conditions: ASO

Sequence | target mRNA inhibition (HepG2, 5 µM) | target mRNA inhibition (HepG2, 3 µM) [%] | target mRNA inhibition (HepG2, 4 µM) [%] | also measured
CACTACAGGTACTTTAAAGC (sugars e5 d10 e5, PS) | 18% |  |  | 
GGATACATTTCTACAGC (sugars e2 k2 d9 k2 e2, linkages s1 o3 s9 o1 s2) |  |  |  | target mRNA inhibition (A431, 0.12 µM): 4%; target mRNA inhibition (A431, 0.6 µM): 12%; target mRNA inhibition (A431, 3 µM): 36%; target mRNA inhibition (A431, 15 µM): 51%; target mRNA inhibition (HepG2, 0.222 µM): 62%; target mRNA inhibition (HepG2, 0.667 µM): 78%; target mRNA inhibition (HepG2, 2 µM): 95%; target mRNA inhibition (HepG2, 6 µM): 91%
GACAAGTTTAATACCCA (sugars e2 k2 d8 k2 e3, PS) | 54% |  |  | 
GCAGGATAACAGATGAG (sugars e2 k2 d8 k2 e3, PS) |  | 84 | 79 | target mRNA inhibition (HepG2, 0.1875 µM): 26%; target mRNA inhibition (HepG2, 0.75 µM): 67%; target mRNA inhibition (HepG2, 12 µM): 93%
GTGATCATAAATCAGTT (sugars e2 k2 d9 k2 e2, PS) | 48% |  |  | 
TACACCACAAGCCAAAC (sugars e2 k2 d8 k2 e3, PS) |  |  | 56 | 
CGCAAACCAGCACCCCGTCT (sugars e5 d10 e5, PS) |  |  | 21 | 
TTACACCACAAGCCAAA (sugars e2 k2 d8 k2 e3, PS) |  |  | 60 | 
TTTATTGGGCGATCCCA (sugars e3 k2 d7 k2 e3, PS) |  | 20 |  | 
TTTCCACCTTTGCCCAA (sugars e3 k2 d7 k2 e3, PS) |  | 78 |  | 
GAGGACCTGCACTGGTA (sugars e3 k2 d7 k2 e3, PS) |  | 17 |  | 
TAATGTTTATCAGGATA (sugars e2 k2 d8 k2 e3, PS) |  | 91 | 90 | target mRNA inhibition (HepG2, 0.1875 µM): 48%; target mRNA inhibition (HepG2, 0.75 µM): 78%; target mRNA inhibition (HepG2, 12 µM): 95%
AGGATACATTTCTACAGCTA (sugars e5 d10 e5, PS) | 79% | 82 | 56 | target mRNA inhibition (HepG2, 0.1875 µM): 29%; target mRNA inhibition (HepG2, 0.75 µM): 47%; target mRNA inhibition (HepG2, 12 µM): 80% and 96%
TTTTTTAGTTTGAATTTGGA (sugars e5 d10 e5, PS) | 0% |  |  | 
TACAGGTCATTGAAACA (sugars e3 k2 d7 k2 e3, PS) |  | 9 |  | 
AGTGTTTAATGTTTATCAGG (sugars e5 d10 e5, linkages s1 o3 s11 o3 s1) |  |  |  | target mRNA inhibition (A431, 0.12 µM): 16%; target mRNA inhibition (A431, 0.6 µM): 49%; target mRNA inhibition (A431, 3 µM): 60%; target mRNA inhibition (A431, 15 µM): 75%; target mRNA inhibition (HepG2, 0.222 µM): 28%; target mRNA inhibition (HepG2, 0.667 µM): 55%; target mRNA inhibition (HepG2, 2 µM): 89%; target mRNA inhibition (HepG2, 6 µM): 80%
CCAATTACACCACAAGC (sugars e2 k2 d8 k2 e3, PS) |  |  | 66 | 
TCTGACAAGTTTAATAC (sugars e2 k2 d8 k2 e3, PS) | 33% |  |  | 

Sequence | target mRNA inhibition (HepG2, 5 µM) | target mRNA inhibition (HepG2, 3 µM) [%] | target mRNA inhibition (HepG2, 4 µM) [%] | also measured
TGGAATCCATGCAGGCC (sugars e3 k2 d7 k2 e3, PS) |  | 12 |  | 
CACATCGGCCACACCATCTT (sugars e5 d10 e5, PS) | 27% and 13% |  |  | 
TAAGATTACAGTGTTTA (sugars e3 k2 d7 k2 e3, PS) |  | 54 |  | 
GACAAAGAAATTCTGACAAG (sugars e5 d10 e5, PS) | 8% |  |  | 
GCCCAAGTCATCTGCTT (sugars e3 k2 d7 k2 e3, PS) |  | 93 |  | 
CTTCCCCACACCTTCACT (sugars e5 d8 e5, linkages s1 o3 s9 o2 s2) |  |  |  | target mRNA inhibition (A431, 0.12 µM): 0%; target mRNA inhibition (A431, 0.6 µM): 8%; target mRNA inhibition (A431, 3 µM): 3%; target mRNA inhibition (A431, 15 µM): 0%; target mRNA inhibition (HepG2, 0.222 µM): 0%; target mRNA inhibition (HepG2, 0.667 µM): 8%; target mRNA inhibition (HepG2, 2 µM): 38%; target mRNA inhibition (HepG2, 6 µM): 48%
ATTACACCACAAGCCAA (sugars e2 k2 d9 k2 e2, PS) |  |  | 63 | 
ATTTCTACAGCTAGCAG (sugars e2 k2 d8 k2 e3, PS) |  |  | 66 | 
GGTTTTTATTCACAGGC (sugars e2 k2 d8 k2 e3, PS) | 38% |  |  | 
TGCCATACAGGGTTTTT (sugars e2 k2 d9 k2 e2, PS) | 22% |  |  | 
GTTTATTGGGCGATCCC (sugars e3 k2 d7 k2 e3, PS) |  | 18 |  | 
AATACCCATCTGTGATTTAA (sugars e5 d10 e5, PS) | 0% |  |  | 
CCGTCTCCGCGACTACTTTA (sugars e5 d10 e5, PS) |  |  | 20 | 
TAGAGGATTAAAGTGAG (sugars e3 k2 d7 k2 e3, PS) |  | 21 |  | 
CACTGGTCCATTACTTT (sugars e3 k2 d7 k2 e3, PS) |  | 12 |  | 
ATTGGGCGATCCCAATT (sugars e2 k2 d8 k2 e3, PS) |  |  | 2 | 
AACTATACAAATCTTCC (sugars e2 k2 d8 k2 e3, PS) | 60% |  |  | 
TACTTTCCTTCTGCTCG (sugars e3 k2 d7 k2 e3, PS) |  | 14 |  | 
